Laboratory results published in patent US20240158369A1, “PYRIMIDINE COMPOUND AS WEE-1 INHIBITOR” (WIGEN BIOMEDICINE TECHNOLOGY (SHANGHAI) CO., LTD., priority 2021, published 2024).
Like-named read-outs stand apart in the source and are kept apart here.

Assays:
MIA PaCa-2 cells = assay: In-vitro anti-proliferative activity in combination with gemcitabine on MIA PaCa-2 cells; type: cell-based; settings: 72 h
Method: MIA PaCa-2 cells were seeded on a 384-well plate at 3000 cells/well, and 20 nM or 200 nM gemcitabine (GMC) was added. After overnight adherence culture, DMSO or the compounds serially 1:5-diluted from 100 nM were added. The viability was assessed 72 h after dosing by measuring the intracellular ATP content. The inhibition percentage of viable cells by the compounds was calculated by comparing with the DMSO group, and the IC50 value was calculated.

[1] = molecular target: recombinant protein Wee-1 (Homo sapiens (Human), UniProt P30291); assay: HTRF assay for inhibiting enzymatic activity of recombinant protein Wee-1; type: biochemical; settings: compounds up to 200 nM, read-out: (IC50) Inhibitory activity against recombinant protein Wee-1
Sequence of recombinant protein Wee-1 (P30291 whole entry): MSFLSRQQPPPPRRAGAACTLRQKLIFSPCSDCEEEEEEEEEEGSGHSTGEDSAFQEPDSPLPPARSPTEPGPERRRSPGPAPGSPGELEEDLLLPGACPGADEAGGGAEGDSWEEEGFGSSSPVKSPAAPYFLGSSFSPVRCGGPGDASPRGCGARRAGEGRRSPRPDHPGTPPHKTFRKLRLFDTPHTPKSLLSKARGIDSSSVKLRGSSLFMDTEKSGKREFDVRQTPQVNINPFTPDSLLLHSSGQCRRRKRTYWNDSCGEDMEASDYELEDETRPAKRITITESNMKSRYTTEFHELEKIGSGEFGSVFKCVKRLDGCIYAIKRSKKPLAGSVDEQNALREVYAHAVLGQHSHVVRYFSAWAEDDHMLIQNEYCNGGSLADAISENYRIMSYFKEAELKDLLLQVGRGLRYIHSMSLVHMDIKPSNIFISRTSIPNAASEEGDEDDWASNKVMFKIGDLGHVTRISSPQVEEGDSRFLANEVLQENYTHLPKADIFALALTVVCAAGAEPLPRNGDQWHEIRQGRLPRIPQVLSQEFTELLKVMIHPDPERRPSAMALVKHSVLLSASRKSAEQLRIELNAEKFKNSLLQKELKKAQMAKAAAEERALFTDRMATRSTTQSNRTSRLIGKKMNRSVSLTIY
Method: The inhibitory effect of the compounds on the enzyme activity of recombinant protein Wee-1 was determined by HTRF. The procedures are as follows:
After DMSO or serially diluted compounds (up to 200 nM, 1:5 diluted) and recombinant proteins were co-incubated in a kinase buffer at 37° C. for 30 min before Fluorescein-PolyGAT and ATP were added, and the reaction was initiated by addition of a substrate. After incubation at room temperature for 90 min, an antibody and a detection solution were added, and after further incubation at room temperature for 60 min, fluorescence values were detected (excitation wavelength: 340 nm, emission wavelengths: 495 and 520 nm). The 520 nm/495 nm fluorescence intensity ratio value was calculated, and compared with that of the DMSO group, and then the inhibition percentages and IC50 values of the compounds were calculated.

[2] = with 20 nM gemcitabine, read-out: in combination with 20 nM GMC IC50
[3] = with 200 nM gemcitabine, read-out: in combination with 200 nM GMC IC50

SMILES | IC50 (MIA PaCa-2 cells; [2]) [nM] | IC50 [1] [nM] | IC50 (MIA PaCa-2 cells; [3]) [nM]
CN1CCc2ccc(Nc3ncc(S(C)(=O)=O)c(Nc4cccc(N=S(C)(C)=O)n4)n3)cc2C1 [Compound 5] | > 100 | > 50 | –
CN1CCc2ccc(Nc3ncc(C(N)=O)c(Nc4cccc(N=S(C)(C)=O)n4)n3)cc2C1 [Compound 6] | > 100 | > 50 | –
CNC(=O)c1cnc(Nc2ccc3c(c2)CN(C)CC3)nc1Nc1cccc(N=S(C)(C)=O)n1 [Compound 7] | > 100 | > 50 | –
CN1CCc2ccc(Nc3ncc(C(=O)N(C)C)c(Nc4cccc(N=S(C)(C)=O)n4)n3)cc2C1 [Compound 8] | > 100 | > 50 | –
CN1CCc2ccc(Nc3ncc(-c4ccco4)c(Nc4cccc(N=S(C)(C)=O)n4)n3)cc2C1 [Compound 9] | > 100 | > 50 | –
CN1CCc2ccc(Nc3ncc(-c4cn[nH]c4)c(Nc4cccc(N=S(C)(C)=O)n4)n3)cc2C1 [Compound 10] | > 100 | > 50 | –
CN1CCc2ccc(Nc3ncc(Br)c(Nc4cccc(N=S(C)(C)=O)n4)n3)cc2C1 [Compound 11] | 16 | ≤ 10 | –
Cc1cc(Nc2ncc(C#N)c(Nc3cccc(N=S(C)(C)=O)n3)n2)cc2c1CCN(C)C2 [Compound 12] | 1.4 | ≤ 10 | –
C=C(C)c1cc(Nc2ncc(C#N)c(Nc3cccc(N=S(C)(C)=O)n3)n2)cc2c1CCN(C)C2 [Compound 15] | 1.8 | ≤ 10 | –
CN1CCc2c(cc(Nc3ncc(C#N)c(Nc4cccc(N=S(C)(C)=O)n4)n3)cc2C2=CCCC2)C1 [Compound 17] | 11 | ≤ 10 | –
CN1CCc2c(cc(Nc3ncc(C#N)c(Nc4cccc(N=S(C)(C)=O)n4)n3)cc2N2CCCC2)C1 [Compound 19] | – | ≤ 10 | 640
CN1CCc2c(cc(Nc3ncc(C#N)c(Nc4cccc(N=S(C)(C)=O)n4)n3)cc2C(F)(F)F)C1 [Compound 20] | 25 | ≤ 10 | –
COc1cc(Nc2ncc(C#N)c(Nc3cccc(N=S(C)(C)=O)n3)n2)cc2c1CCN(C)C2 [Compound 22] | – | ≤ 10 | 1.2
CN1CCc2c(F)cc(Nc3ncc(C#N)c(Nc4cccc(N=S(C)(C)=O)n4)n3)cc2C1 [Compound 25] | 18.6 | ≤ 10 | –
CN1CCc2c(I)cc(Nc3ncc(C#N)c(Nc4cccc(N=S(C)(C)=O)n4)n3)cc2C1 [Compound 28] | 14.5 | ≤ 10 | –
CN1Cc2cc(Nc3ncc(C#N)c(Nc4cccc(N=S(C)(C)=O)n4)n3)ccc2C2(CC2)C1 [Compound 29] | 3.7 | ≤ 10 | –
CN1CCc2c(C#N)cc(Nc3ncc(C#N)c(Nc4cccc(N=S(C)(C)=O)n4)n3)cc2C1 [Compound 41] | – | 10 to 50 | > 100
C=Cc1cc(Nc2ncc(C#N)c(Nc3cccc(N=S(C)(C)=O)n3)n2)cc2c1CCN(C)C2 [Compound 42] | – | ≤ 10 | 10
C#Cc1cc(Nc2ncc(C#N)c(Nc3cccc(N=S(C)(C)=O)n3)n2)cc2c1CCN(C)C2 [Compound 43] | 21.2 | ≤ 10 | –

SMILES | IC50 (MIA PaCa-2 cells; [2]) [nM] | IC50 [1] [nM] | IC50 (MIA PaCa-2 cells; [3]) [nM]
CN(C)C1CCc2ccc(Nc3ncc(C#N)c(Nc4cccc(N=S(C)(C)=O)n4)n3)cc2CC1 (stereo not shown) [Compound 52] | 4.5 | ≤ 10 | –
CN1CCc2ccc(Nc3ncc(C#N)c(Nc4cccc(N=S(C)(C)=O)n4)n3)cc2CC1 [Compound 55] | 11.3 | ≤ 10 | –
CN(C)C1Cc2ccc(Nc3ncc(C#N)c(Nc4cccc(N=S(C)(C)=O)n4)n3)cc2C1 (stereo not shown) [Compound 60] | 10.3 | ≤ 10 | –
CN1CCN(c2ccc(Nc3ncc(C#N)c(Nc4cccc(N=S(C)(C)=O)n4)n3)cc2)CC1 [Compound 61] | 7.5 | ≤ 10 | –
CN1CCC(N2CCN(c3ccc(Nc4ncc(C#N)c(Nc5cccc(N=S(C)(C)=O)n5)n4)cc3)CC2)CC1 [Compound 62] | 12.5 | ≤ 10 | –
CN1CCN(c2cccc(Nc3ncc(C#N)c(Nc4cccc(N=S(C)(C)=O)n4)n3)c2)CC1 [Compound 63] | 18.4 | ≤ 10 | –
CN1CCc2ccc(Nc3ncc(C#N)c(Nc4cccc(N=S(C)(C)=O)c4)n3)cc2C1 [Compound 64] | 34 | ≤ 10 | –
CN1CCc2ccc(Nc3ncc(C#N)c(N4CCc5c(N=S(C)(C)=O)cccc54)n3)cc2C1 [Compound 77] | – | ≤ 10 | > 100
CN1CCc2ccc(Nc3ncc(C#N)c(-c4c[nH]c5c(N=S(C)(C)=O)cccc45)n3)cc2C1 [Compound 78] | > 100 | ≤ 10 | –
CN1CCc2ccc(Nc3ncc(C#N)c(-c4cn(C)c5c(N=S(C)(C)=O)cccc45)n3)cc2C1 [Compound 79] | – | ≤ 10 | > 100
CN1CCc2ccc(Nc3ncc(C#N)c(-n4cnc5c(N=S(C)(C)=O)cccc54)n3)cc2C1 [Compound 80] | – | 10 to 50 | > 100
C=Cc1cc(N=S(C)(C)=O)nc(Nc2nc(Nc3ccc4c(c3)CN(C)CC4)ncc2C#N)c1 [Compound 85] | – | ≤ 10 | > 100
CN1CCc2ccc(Nc3ncc(I)c(Nc4cccc(N=S(C)(C)=O)n4)n3)cc2C1 [Compound 105] | 26.5 | ≤ 10 | –
CN1CCc2ccc(Nc3ncc(C#N)c(Oc4cccc(N=S(C)(C)=O)n4)n3)cc2C1 [Compound 106] | > 100 | ≤ 10 | –
C#Cc1cnc(Nc2ccc3c(c2)CN(C)CC3)nc1Nc1cccc(N=S(C)(C)=O)n1 [Compound 107] | 26.6 | ≤ 10 | –
CN1CCc2ccc(Nc3ncc(-c4ccc(F)nc4)c(Nc4cccc(N=S(C)(C)=O)n4)n3)cc2C1 [Compound 108] | > 100 | 10 to 50 | –
CN1CCc2c(cc(Nc3ncc(C#N)c(Nc4cccc(N=S(C)(C)=O)n4)n3)cc2-c2ccccc2)C1 [Compound 111] | 6.5 | ≤ 10 | –
CN1CCc2c(cc(Nc3ncc(C#N)c(Nc4cccc(N=S(C)(C)=O)n4)n3)cc2-c2cc[nH]n2)C1 [Compound 112] | > 100 | ≤ 10 | –
CN1CCc2c(cc(Nc3ncc(C#N)c(Nc4cccc(N=S(C)(C)=O)n4)n3)cc2-c2ccn(C)n2)C1 [Compound 113] | 11.7 | ≤ 10 | –

SMILES | IC50 (MIA PaCa-2 cells; [2]) [nM] | IC50 [1] [nM] | IC50 (MIA PaCa-2 cells; [3]) [nM]
CN1CCc2c(cc(Nc3ncc(C#N)c(Nc4cccc(N=S(C)(C)=O)n4)n3)cc2N2CCCCC2)C1 [Compound 115] | 9.3 | ≤ 10 | –
CN1CCc2c(cc(Nc3ncc(C#N)c(Nc4cccc(N=S(C)(C)=O)n4)n3)cc2N2CCOCC2)C1 [Compound 116] | 1.3 | ≤ 10 | –
CN1CCc2c(cc(Nc3ncc(C#N)c(Nc4cccc(N=S(C)(C)=O)n4)n3)cc2C2=CCOCC2)C1 [Compound 118] | 1.1 | ≤ 10 | –
CN1CCN(c2cc(Nc3ncc(C#N)c(Nc4cccc(N=S(C)(C)=O)n4)n3)cc3c2CCN(C)C3)CC1 [Compound 119] | 2.6 | ≤ 10 | –
COC1CCN(c2cc(Nc3ncc(C#N)c(Nc4cccc(N=S(C)(C)=O)n4)n3)cc3c2CCN(C)C3)CC1 [Compound 120] | 4.5 | ≤ 10 | –
CN1CCc2c(cc(Nc3ncc(C#N)c(Nc4cccc(N=S(C)(C)=O)n4)n3)cc2CN2CCOCC2)C1 [Compound 121] | 113 | ≤ 10 | –
C[C@@H]1CN(c2cc(Nc3ncc(C#N)c(Nc4cccc(N=S(C)(C)=O)n4)n3)cc3c2CCN(C)C3)C[C@@H](C)O1 [Compound 122] | 49 | ≤ 10 | –
CC1CN(c2cc(Nc3ncc(C#N)c(Nc4cccc(N=S(C)(C)=O)n4)n3)cc3c2CCN(C)C3)CCO1 (stereo not shown) [Compound 123] | 28 | ≤ 10 | –
CN1CCc2c(cc(Nc3ncc(C#N)c(Nc4ccnc(N=S(C)(C)=O)n4)n3)cc2C2CC2)C1 [Compound 140] | – | ≤ 10 | –
CCc1cc(Nc2ncc(C#N)c(Nc3cccc(N=S(C)(C)=O)n3)n2)cc2c1CCN(CC)C2 [Compound 141] | – | ≤ 10 | –
CCc1cc(Nc2ncc(C#N)c(Nc3cncc(N=S(C)(C)=O)n3)n2)cc2c1CCN(C)C2 [Compound 142] | – | ≤ 10 | –
CCc1cc(Nc2ncc(C#N)c(Nc3nccc(N=S(C)(C)=O)n3)n2)cc2c1CCN(C)C2 [Compound 143] | – | ≤ 10 | –
CCc1cc(Nc2ncc(C#N)c(Nc3ccnc(N=S(C)(C)=O)n3)n2)cc2c1CCN(C)C2 [Compound 144] | – | ≤ 10 | –
CCCc1cc(Nc2ncc(C#N)c(Nc3cccc(N=S(C)(C)=O)n3)n2)cc2c1CCN(C)C2 [Compound 149] | – | ≤ 10 | –
CCc1cc(Nc2ncc(C#N)c(Nc3cccc(N=S(C)(C)=O)n3)n2)cc2c1CCNC2 [Compound 151] | – | ≤ 10 | –
CCc1cc(Nc2ncc(C#N)c(Nc3cccc(N=S(C)(=O)CC)n3)n2)cc2c1CCN(C)C2 (stereo not shown) [Compound 157] | – | ≤ 10 | –
CCc1cc(Nc2ncc(C#N)c(Nc3cccc(N=S(=O)(CC)CC)n3)n2)cc2c1CCN(C)C2 [Compound 158] | – | ≤ 10 | –
CCc1cc(Nc2ncc(C#N)c(Nc3cccc(N=S4(=O)CCC4)n3)n2)cc2c1CCN(C)C2 [Compound 159] | – | ≤ 10 | –
CCc1cc(Nc2ncc(C#N)c(Nc3cccc(N=S4(=O)CCCC4)n3)n2)cc2c1CCN(C)C2 [Compound 160] | – | ≤ 10 | –
